Measured values from patent publication US20050209157A1, “Short bioactive peptides and methods for their use” (priority 2001, published 2005).
No end group written: not given here.

How the values were obtained:
SW480 = assay: Anti-cancer assay, MTT, LD50; type: cell-based; conditions: SW480 colon adenocarcinoma line, 24 hours with peptide
Description: (§1) Numbers are LD50 values (μg/mL).

BMKC = assay: Anti-cancer assay, MTT, LD50; type: cell-based; conditions: BMKC cloned melanoma line, 24 hours with peptide
Description: as §1

HeLaS3 = assay: Anti-cancer assay, MTT, LD50; type: cell-based; conditions: 24 hours with peptide, cervical carcinoma
Description: as §1

PC3 = assay: Anti-cancer assay, MTT, LD50; type: cell-based; conditions: 24 hours with peptide, prostate adenocarcinoma
Description: as §1

MCF7 = assay: Anti-cancer assay, MTT, LD50; type: cell-based; conditions: MCF7 breast adenocarcinoma line, MTT, 24 hours with peptide
Description: as §1

H1299 = assay: Anti-cancer assay, MTT, LD50; type: cell-based; conditions: 24 hours with peptide, lung large cell carcinoma
Description: as §1

in vitro = conditions: human, WI38 normal lung fibroblast cells, LD50 WI38, WI38 normal lung fibroblast line, MTT, 24 hours with peptide
[1] = system: yeast (Saccharomyces cerevisiae); assay: Antimicrobial assay I, yeast assay in RPMI 1640; type: cell-based; conditions: RPMI 1640 media
WI38 = conditions: MTT, 24 hours with peptide; for WI38 LD50: normal fibroblast line; for LD50 WI38: WI38 normal lung fibroblast line
[2] = system: human red blood cells (RBC); assay: in vitro; type: cell-based; conditions: hemolytic assay, concentration at 50% hemolysis, 1 hour at 37° C.
[3] = system: Pseudomonas aeruginosa ATCC 9027; assay: Antimicrobial assay I, MIC by OD measurement; type: cell-based; conditions: 37° C. for 24 hours, absorbance 620 nm
[4] = system: Staphylococcus aureus ATCC 6538; assay: Antimicrobial assay I, MIC by OD measurement; type: cell-based; conditions: 37° C. for 24 hours, absorbance 620 nm

Substance	LD50 SW480 (SW480)	LD50 BMKC (BMKC)	HeLaS3 LD50 (HeLaS3)	PC3 LD50 (PC3)	LD50 MCF7 (MCF7)	H1299 LD50 (H1299)	CC50 at 24 h (in vitro)	yeast (MIC or MFC) [1]	WI38 LD50 (WI38)	LD50 [2]	paerug9027 (MIC) [3]	staph6538 (MIC) [4]	LD50 WI38 (WI38)
FALALKLAKKL-NH2 [P178]	> (> indicates greater than 1000)	640 µg/mL	> (> indicates greater than 1000)	> (> indicates greater than 1000)	770 µg/mL	> (> indicates greater than 1000)	405 µg/mL	> (> indicates greater than 200 μg/mL)	405 µg/mL	> (> indicates greater than 1000)	100 µg/mL	200 µg/mL	
FAKLLAKKLL-NH2 [P57]	740 µg/mL	740 µg/mL	830 µg/mL	> (> indicates greater than 1000)	> (> indicates greater than 1000)	> (> indicates greater than 1000)	900 µg/mL	200 µg/mL	900 µg/mL	> (> indicates greater than 1000)	200 µg/mL	100 µg/mL	
FAKLLAKLAKKSL-NH2 [P127]	400 µg/mL	535 µg/mL	610 µg/mL	> (> indicates greater than 1000)	440 µg/mL	770 µg/mL	760 µg/mL	100 µg/mL	760 µg/mL	> (> indicates greater than 1000)	25 µg/mL	100 µg/mL	
VALALKALKKL-NH2 [P180]	600 µg/mL	770 µg/mL	760 µg/mL	> (> indicates greater than 1000)	950 µg/mL	> (> indicates greater than 1000)	940 µg/mL	> (> indicates greater than 200 μg/mL)	940 µg/mL	> (> indicates greater than 1000)	> (> indicates greater than 200 μg/mL)	200 µg/mL	
FAKKLAKKLAKAAL-NH2 [P76, FAKKLAKKLAKAAL-NH2]	400 µg/mL	750 µg/mL	380 µg/mL	675 µg/mL	970 µg/mL	860 µg/mL	445 µg/mL	200 µg/mL	445 µg/mL	> (> indicates greater than 1000)	100 µg/mL	10 µg/mL	
FAKLAKKALAKLL-NH2 [P148]	> (> indicates greater than 1000)	330 µg/mL	> (> indicates greater than 1000)	> (> indicates greater than 1000)	315 µg/mL	660 µg/mL	380 µg/mL	200 µg/mL	380 µg/mL	> (> indicates greater than 1000)	200 µg/mL	> (> indicates greater than 200 μg/mL)	
FAKIIAKIAKIAKKIL-NH2 [P139]	> (> indicates greater than 1000)	525 µg/mL	> (> indicates greater than 1000)	> (> indicates greater than 1000)	625 µg/mL	850 µg/mL	550 µg/mL	200 µg/mL	550 µg/mL	> (> indicates greater than 1000)	25 µg/mL	50 µg/mL	
FALALKLKKL-NH2 [P181]	870 µg/mL	830 µg/mL	> (> indicates greater than 1000)	> (> indicates greater than 1000)	550 µg/mL	> (> indicates greater than 1000)	500 µg/mL	100 µg/mL	500 µg/mL	> (> indicates greater than 1000)	200 µg/mL	100 µg/mL	
FAKLLAKLAKAKA-NH2 [P95]	> (> indicates greater than 1000)	820 µg/mL	> (> indicates greater than 1000)	> (> indicates greater than 1000)	> (> indicates greater than 1000)	> (> indicates greater than 1000)	250 µg/mL	> (> indicates greater than 200 μg/mL)	250 µg/mL	> (> indicates greater than 1000)	200 µg/mL	100 µg/mL	
FAKLWAKLAKKL-NH2 [P136]	600 µg/mL	530 µg/mL	400 µg/mL	900 µg/mL	500 µg/mL	450 µg/mL		100 µg/mL	> (> indicates greater than 1000)	> (> indicates greater than 1000)	50 µg/mL	100 µg/mL	> (> indicates greater than 1000)
FAKLA-NH2 [P128, FAKLA-NH2]	530 µg/mL	330 µg/mL	700 µg/mL	> (> indicates greater than 1000)	500 µg/mL	> (> indicates greater than 1000)	500 µg/mL	200 µg/mL	500 µg/mL	> (> indicates greater than 1000)	100 µg/mL	> (> indicates greater than 200 μg/mL)	
FAKLFAKAFKKAL-NH2 [P117, FAKLFAKAFKKAL-NH2]	> (> indicates greater than 1000)	> (> indicates greater than 1000)	> (> indicates greater than 1000)	> (> indicates greater than 1000)	> (> indicates greater than 1000)	> (> indicates greater than 1000)		200 µg/mL	> (> indicates greater than 1000)	> (> indicates greater than 1000)	200 µg/mL	100 µg/mL	> (> indicates greater than 1000)
KAKLF-NH2 [P130, KAKLF-NH2]	> (> indicates greater than 1000)	> (> indicates greater than 1000)	> (> indicates greater than 1000)	> (> indicates greater than 1000)	> (> indicates greater than 1000)	> (> indicates greater than 1000)		200 µg/mL	> (> indicates greater than 1000)	> (> indicates greater than 1000)	200 µg/mL	200 µg/mL	> (> indicates greater than 1000)
FAKIIAKIAKKI-NH2 [P143]	> (> indicates greater than 1000)	> (> indicates greater than 1000)	> (> indicates greater than 1000)	> (> indicates greater than 1000)	> (> indicates greater than 1000)	> (> indicates greater than 1000)		200 µg/mL	> (> indicates greater than 1000)	> (> indicates greater than 1000)	50 µg/mL	100 µg/mL	> (> indicates greater than 1000)
FALKALKK-NH2 [P145]	> (> indicates greater than 1000)	> (> indicates greater than 1000)	240 µg/mL	> (> indicates greater than 1000)	> (> indicates greater than 1000)	> (> indicates greater than 1000)		200 µg/mL	> (> indicates greater than 1000)	> (> indicates greater than 1000)	100 µg/mL	200 µg/mL	> (> indicates greater than 1000)
FAKLLAKLAKK-NH2 [P151]	> (> indicates greater than 1000)	> (> indicates greater than 1000)	> (> indicates greater than 1000)	> (> indicates greater than 1000)	> (> indicates greater than 1000)	> (> indicates greater than 1000)		200 µg/mL	> (> indicates greater than 1000)	> (> indicates greater than 1000)	> (> indicates greater than 200 μg/mL)	> (> indicates greater than 200 μg/mL)	> (> indicates greater than 1000)
